According to US20260356814A1, “INDOLINE DERIVATIVES AS SEROTONERGIC AGENTS USEFUL FOR THE TREATMENT OF DISORDERS RELATED THERETO” (MINDSET PHARMA INC., priority 2022, published 2026):
Entries after “also recorded” stand apart in the source; their conditions may differ.

Tests used:
human 5-HT1A receptor = biological target: T1, human 5-HT1A receptor (Homo sapiens, UniProt P08908); test: Human 5-HT1A: Functional FLIPR assay (agonist mode); type: cell-based; settings: @10 μM (head); footnote: curve fitting with activation (%) @ 10 mM with RFU; RFU=Fmax−Fmin
T1 construct: expressed in transfected cells; host or cells: CHO (HTR1A&Ga15-CHO)
T1 sequence (P08908 1-422): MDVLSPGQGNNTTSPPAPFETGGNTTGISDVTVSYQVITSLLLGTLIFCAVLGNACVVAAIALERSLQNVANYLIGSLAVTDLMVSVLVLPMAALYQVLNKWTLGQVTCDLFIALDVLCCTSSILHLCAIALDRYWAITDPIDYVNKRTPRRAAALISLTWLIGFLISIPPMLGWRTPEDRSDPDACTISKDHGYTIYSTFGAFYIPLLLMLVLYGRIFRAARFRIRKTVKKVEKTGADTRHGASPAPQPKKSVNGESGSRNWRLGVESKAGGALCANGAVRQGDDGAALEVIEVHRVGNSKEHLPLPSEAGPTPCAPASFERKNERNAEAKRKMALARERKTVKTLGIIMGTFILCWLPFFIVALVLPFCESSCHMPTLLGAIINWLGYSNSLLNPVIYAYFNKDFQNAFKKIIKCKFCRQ
Procedure: The potential excitatory effects of compounds targeting on 5-hydroxytryptamine receptor 1A (5-HT1A) under agonist mode was assessed.
HTR1A&Ga15-CHO cells were cultured in DMEM/F12 medium containing 10% dialyzed FBS, 1x penicillin-streptomycin and 600 μg/mL Hygromycin B. The cells were passaged about three times a week, maintained between ~30% to ~90% confluence.
• 1. The cell culture medium (DMEM/F12 medium containing 10% dialyzed FBS, 1x penicillin-streptomycin and 600 μg/mL Hygromycin B), TrypLE™ Express and DPBS was warmed to R.T. in advance. • 2. The cell culture medium was removed from flask. Washed cells with DPBS. • 3. 1 mL TrypLE™ Express was added to the flask, mixed well by gentle shaking and cells were incubated at 37° C. for a few minutes. • 4. The cells were checked for morphological change under microscope, the digestion was stopped by adding 2 mL cell culture medium to the flask when most of cells turned to round. • 5. The cell suspension was transferred into a 15 mL centrifuge tube, and then centrifuged at 1,200 rpm for 5 minutes. • 6. The supernatant was removed. The cell pellet were resuspended with 2 mL cell culture medium. • 7. The cell density were counted using cell counter. Only cells with >85% viability were used for the assay. • 8. Cells were diluted to 4×10^5/mL with cell culture medium. • 9. 30 μL/well cell suspensions were added into a 384-well cell plate (The cell density was 12,000 cells/well). • 10. The cell plate was incubated overnight at 37° C., 5% (v/v) CO2.
• 1. On the day of experiments, culture medium was removed from the cell plate. • 2. 10 μL of assay buffer (20 mM HEPES, in 1×HBSS, pH 7.4) was added to each well of the cell plate. • 3. 2× dye solution was prepared following the manufacture's instruction of the FLIPR® Calcium 6 assay kit: • i. The dye was diluted with assay buffer. • ii. probenecid was added to the final concentration of 5 mM. • iii. Vortexed vigorously for 1-2 minutes, adjust pH to 7.4. • 4. 10 μL of 2×dye solution was added to each well of the cell plate. • 5. The cell plate was placed on plate shaker, followed by shaking at 600 rpm for 2 minutes. • 6. The plate was incubated at 37° C. for 2 hours followed by an additional 15-minute incubation at 25° C. 3.4 Prepare 3×compounds. • 1. Serotonin was prepared to the concentration of 10 mM with DMSO, 3-folds serial dilutions were performed with DMSO. • 2. Prepare the test compound to the concentration of 10 mM with DMSO, preform 3-folds serial dilutions with DMSO. • 3. The compounds were added to a 384-well compound source plate. • 4. 90 nL/well of serial diluted compounds were transferred from source plate to a 384-well compound plate by using an Echo. • 5. 30 μL/well of assay buffer was added to the compound plate. • 6. The plate was mixed on-plate shaker for 2 minutes. 3.5 FLIPR assay • 1. After the cells incubate with dye solution, the cell plate, compound plate containing 3×compounds and FLIPR tips were placed into FLIPR. • 2. 10 μL of 3×compounds were transferred from the compound plate to the cell plate by FLIPR. • 3. The plate was read for 160 sec with 1 sec interval to obtain the data of agonist mode.
(§1) • 1. The normalized fluorescence reading (RFU) was calculated as shown below, wherein Fmax and Fmin stand for maximum and minimum of calcium signal during defined time window:
RFU=Fmax−Fmin • 2. EC50 was calculated by fitting RFU against log of compound concentrations with Hill equation using XLfit.

5-HT2 receptor = settings: daily administration; cited from earlier work
[1] = tested on: brain's default mode network; settings: intravenously administered; cited from earlier work
[2] = tested on: depression and anxiety associated with life-threatening disease; settings: in a supportive setting; cited from earlier work
[3] = biological target: T2, human 5-HT2A (h5-HT2A) receptor (Homo sapiens, UniProt P28223); test: FLIPR assay: human 5-HT2A (agonist mode); type: cell-based; settings: @10 μM (head); footnote: curve fitting with activation (%) @ 10 mM with RFU; RFU=Fmax−Fmin
T2 construct: expressed in transfected cells; host or cells: HEK293 (HTR2A&Ga15-HEK293, tetracycline-induced)
Procedure: Assessment of the effect of exemplary compounds of Formula I targeting on human 5-HT2A (h5-HT2A) receptor under agonist mode.
HTR2A&Ga15-HEK293 cells were cultured in DMEM medium containing 10% dialyzed FBS and 1x penicillin-streptomycin, 100 μg/mL Hygromycin B and 300 μg/mL G418. The cells were passaged about three times a week, maintained between ~30% to ~90% confluence.
• 1. The cell culture medium (DMEM medium containing 10% dialyzed FBS and 1× penicillin-streptomycin, 100 μg/mL Hygromycin B and 300 μg/mL G418), TrypLE™ Express and DPBS to R.T. was warmed in advance. • 2. For induction, 1 μg/ml tetracycline (final concentration) was added to cell culture medium and incubated for 48 hours prior to seeding cells into plate at 37° C., 5% (v/v) CO2. The cell culture medium was removed from flask. Cells were washed with DPBS. • 3. 2 mL TrypLE™ Express was added to the flask, mixed well by gentle shaking and cells were incubated at 37° C. for a few minutes. • The cells were checked for morphological change under microscope, the digestion was stopped by adding 4 mL cell culture medium to the flask when most of cells turned to round. • 5. The cell suspension was transferred into a 15 mL centrifuge tube, and then centrifuged at 1,200 rpm for 5 minutes. • 6. The supernatant was removed. The cell pellet was resuspended with 2 mL cell culture medium. • 7. The cell density was counted using cell counter. Only cells with >85% viability were used for the assay. • 8. Cells were diluted to 6.67×10^5/mL with cell culture medium. • 9. 30 μL/well cell suspensions added into a 384-well cell plate (The cell density was 20,000 cells/well). • 10. The cell plate was incubated overnight at 37° C., 5% (v/v) CO2. 2.3 Cell handling • 1. On the day of experiments, culture medium was removed from the cell plate. • 2. 10 μL of assay buffer (20 mM HEPES, in 1×HBSS, pH 7.4) was added to each well of the cell plate. • 3. 2×dye solution was prepared following the manual of the FLIPR® Calcium 6 Assay Kit: • i. The dye was diluted with assay buffer. • ii. Probenecid was added to the final concentration of 5 mM. • iii. Vortexed vigorously for 1-2 minutes. • 4. 10 μL of 2× dye solution was added to each well of the cell plate • 5. The cell plate was placed on plate shaker, followed by shaking at 600 rpm for 2 minutes. • 6. The plate was incubated at 37° C. for 2 hours followed by an additional 15-minute incubation at 25° C. 2.4 Prepare 3×compound • 1. Serotonin HCl was prepared to the concentration of 10 mM with DMSO. • 2. The test compounds were prepared to the concentration of 10 mM with DMSO. • 3. The compounds were added to a 384-well compound source plate. • 4. 3-folds serial dilutions were performed with DMSO. • 5. 90 nL/well of serial diluted compounds was transferred from source plate to a 384-well compound plate by using an Echo. • 6. 30 μL/well of assay buffer (20 mM HEPES in 1x HBSS, pH 7.4) was added to the compound plate. • 7. The plate was mixed on-plate shaker for 2 minutes.
• 1. After the cells were incubated with dye solution, the cell plate, compound plate containing 3×compounds and FLIPR tips were placed into FLIPR. • 2. 10 μL of 3×compounds transferred from the compound plate to the cell plate by FLIPR. • 3. The plate was read for 160 sec with 1 sec interval and the data of agonist mode was obtained.
as §1
RFU=Fmax−Fmin • 2. EC50 by fitting RFU against log of compound concentrations with Hill equation was calculated using XLfit.
The following procedure can also be followed: • 1. Cells are cultured in cell culture medium (DMEM containing 10% FBS, 1× penicillin-streptomycin 300 μg/ml G418 and 100 μg/ml hygromycin B) at 37° C., 5% (v/V) CO2. • 2. One day before the assays, the cells are detached using TrypLE™ Express and cells are counted using cell counter.

human 5-HT2A receptor = human 5-HT2A receptor (Homo sapiens, UniProt P28223); test: Human 5-HT2A: Radioligand binding assay ([3H]-ketanserin); settings: [3H]-ketanserin displacement, 27° C., 90 min, pH 7.4; read-out: h5-HT2A, IC50
Procedure: Exemplary compounds of Formula I were evaluated functionally using FLIPR assay for their effect on h5-HT2A receptor under agonist mode. The objective of this study was to evaluate the binding properties of exemplary compounds of Formula I on 5-hydroxytryptamine receptor 2A (5-HT2A). • Human 5-HT2A: Radioligand binding assay:
• i. The assay buffer was prepared following the table below.
• Adjust pH to 7.4 followed by […] sterile filtration • ii. 8 doses of reference and test compounds starting from 10 mM stock solution as required was prepared by 5-fold serial dilutions with 100% (v/v) DMSO. • iii. UniFilter-96 GF/B plate was pretreated: • a. 50 μl/well of 0.5% (v/v) PEI was added to UniFilter-96 […] plates. The plates were sealed and incubated at 4° C. for 3 hrs. • b. After incubation, the plates were washed 3 times with ice-cold wash buffer (50 mM Tris, pH7.4). • iv. The assay plate was prepared: • a. Cell membrane was diluted with assay buffer and 330 μl/well was added to 96 round deep well plates to reach a concentration of 20 μg/well. • b. 8 concentrations of reference or test compounds were prepared and 110 μl/well was added to 96 round deep well plates. • c. [3H]-ketanserin was diluted with assay buffer to 5 nM (5X final concentration) and 110 μl/well was added to 96 round deep well plates. • v. The plate was centrifuged at 1000 rpm for 30 secs and then agitated at 600 rpm, R.T. for 5 min. • vi. The plates were sealed and the plate incubated at 27° C. for 90 min. • vii. The incubation was stopped by vacuum filtration onto GF/B filter plates followed by 4 times washing with ice-cold wash buffer (50 mM Tris, pH7.4). • viii. The plates were dried at 37° C. for 45 min. • ix. The filter plates were sealed and 40 μl/well of scintillation cocktail was added. • x. The plate was read by using a Microbeta2 microplate counter.
• 1. For reference and test compounds, the results were expressed as % Inhibition, using the normalization equation: N=100−100×(U−C2)/(C1-C2), where U is the unknown value, C1 is the average of high controls, and C2 is the average of low controls. • 2. The IC50 was determined by fitting percentage of inhibition as a function of compound concentrations with Hill equation using XLfit.

T2 sequence (P28223 whole entry): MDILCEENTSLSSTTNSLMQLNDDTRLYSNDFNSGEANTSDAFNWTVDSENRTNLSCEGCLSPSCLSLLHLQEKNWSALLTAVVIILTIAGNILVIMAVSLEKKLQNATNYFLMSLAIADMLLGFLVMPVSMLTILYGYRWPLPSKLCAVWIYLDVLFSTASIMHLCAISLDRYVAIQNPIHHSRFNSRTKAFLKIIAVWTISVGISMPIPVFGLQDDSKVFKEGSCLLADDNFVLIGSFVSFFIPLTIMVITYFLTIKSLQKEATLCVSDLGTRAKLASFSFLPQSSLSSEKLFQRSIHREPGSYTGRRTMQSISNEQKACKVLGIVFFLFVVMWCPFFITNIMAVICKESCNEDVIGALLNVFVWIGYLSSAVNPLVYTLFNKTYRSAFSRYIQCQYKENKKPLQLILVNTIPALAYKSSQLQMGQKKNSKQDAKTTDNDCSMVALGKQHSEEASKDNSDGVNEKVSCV
Sequence of human 5-HT2A receptor (P28223 whole entry): as above

In the case of `CN(C)CCc1c[nH]c2cccc(O)c12` [Psilocin, 4-hydroxy-N,N-dimethyltryptamine, reference compound], the “RFU@10 μM” value (human 5-HT1A receptor) is reported as 140 RFU.

For `CCN(CC)C(=O)[C@@H]1C=C2c3cccc4[nH]cc(c34)C[C@H]2N(C)C1` [LSD], the “5-HT2 receptor density in rat brain” value (5-HT2 receptor) is given as “selectively decreased 5-HT2 receptor density in the rat brain; also recorded: reduce 5-HT2 receptor density in rat brain”, the “oscillatory power in areas of the brain's default mode network” value [1] is given as “decreases in oscillatory power in areas of the brain's default mode network” and the “anti-depressant and anxiolytic effects” value [2] is given as “significant and sustained anti-depressant and anxiolytic effects”.

For `COc1ccc2c(c1)N(C[C@@H]1CCCN1C)CC2` [(S)-I-58, (S)-6-Methoxy-1-((1-methylpyrrolidin-2-yl)methyl) indoline], the “RFU@10 μM” value [3] was 203 RFU and the IC50 (human 5-HT2A receptor) was over 30 µM.
